{"source": "paper PMC6994103", "about": "(PLoS Neglected Tropical Diseases, 2020)", "key": {"[1]": {"test_system": "proline transporter TcAAAP069", "experiment": "Proline transport assay in wild type (TcWT) epimastigotes", "assay_type": "cell-based, Trypanosoma cruzi", "details": "for proline transport inhibition at 25 μM and 100 μM: TcWT epimastigotes, preliminary", "protocol": "(§1) Aliquots of epimastigote cultures (10^7 parasites) were centrifuged at 8,000 xg for 30 s, and washed once with PBS. […] Following incubation at 28°C, reaction was stopped by adding 1 mL of ice-cold PBS. Cells were centrifuged as indicated above, and washed twice with ice-cold PBS. Cell pellets were resuspended in 0.2 mL of water and counted for radioactivity in UltimaGold XR liquid scintillation cocktail (Packard Instrument Co., Meridien CT, USA). Cell viability was assessed by direct microscopic examination and viability assays by using “Cell Titer 96 Aqueous One Solution Cell Proliferation Assay (MTS)” (Promega, Madison, WI, USA) according to the manufacturer instructions. […] Non-specific uptake and carry over were assayed without incubation (T0), or incubated at 4°C. […] As a control, regular PBS buffer was used."}, "[2]": {"test_system": "T. cruzi epimastigotes CL Brener strain", "experiment": "Trypanocidal activity in epimastigotes, CL Brener strain", "assay_type": "cell-based, Trypanosoma cruzi", "details": "CL Brener vs Y", "protocol": "(§2) VERO cells (5 x10^4 per well) were infected with trypomastigotes (2.5 ×10^5 per well) for 4 h. After this period, the infected cells were washed twice with phosphate-buffered saline (PBS), the MEM medium was replaced, and the cells were kept in culture at 37°C, 5% CO2. In order to obtain intracellular amastigotes, the cells were lysed 4 days after infection using a cell scraper, collected, washed twice with PBS (or MEM) and counted using a hemocytometer. Trypomastigotes were obtained from infected VERO cells as previously described.\nEpimastigotes of T. cruzi were cultured as described above, in 24-wells plate at a start density of 0.5 x10^7 cells/mL in BHT medium. Parasites´ growth was evaluated at different concentrations of BZL, CV and CV structural analogues, and parasite proliferation was determined after 48 h. […] Growth was determined by counting in a Neubauer chamber and viability assays by using “Cell Titer 96 Aqueous One Solution Cell Proliferation Assay (MTS)” (Promega, Madison, WI, USA) according to the manufacturer’s instructions. Amastigotes were fixed with methanol, stained and mounted with Vectashield with DAPI (Vector Laboratories, Burlingame, CA, USA), and then the non-lysed cells were counted by using fluorescence microscopy."}, "[3]": {"test_system": "proline transporter TcAAAP069", "experiment": "Proline transport assay in TcAAAP069 overexpressing (Tc069) epimastigotes", "assay_type": "cell-based, Trypanosoma cruzi", "details": "Tc069 vs TcWT", "protocol": "as §1"}, "[4]": {"test_system": "T. cruzi Tc069 epimastigotes Y strain", "experiment": "Trypanocidal activity in TcAAAP069 overexpressing (Tc069) epimastigotes", "assay_type": "cell-based, Trypanosoma cruzi", "details": "Tc069 vs TcWT", "protocol": "(§3) Epimastigotes of T. cruzi were cultured as described above, in 24-wells plate at a start density of 0.5 x10^7 cells/mL in BHT medium. Parasites´ growth was evaluated at different concentrations of BZL, CV and CV structural analogues, and parasite proliferation was determined after 48 h. Trypanocidal activity in trypomastigotes and amastigotes was performed using 1 x10^6 cells/mL in 96-well plates and incubating at 37°C for 24 h in the presence of the corresponding drug. Growth was determined by counting in a Neubauer chamber and viability assays by using “Cell Titer 96 Aqueous One Solution Cell Proliferation Assay (MTS)” (Promega, Madison, WI, USA) according to the manufacturer’s instructions. Amastigotes were fixed with methanol, stained and mounted with Vectashield with DAPI (Vector Laboratories, Burlingame, CA, USA), and then the non-lysed cells were counted by using fluorescence microscopy."}, "[5]": {"test_system": "T. cruzi epimastigotes Dm28c strain", "experiment": "Trypanocidal activity in epimastigotes, Dm28c strain", "assay_type": "cell-based, Trypanosoma cruzi", "details": "Dm28c vs Y", "protocol": "as §2, §3"}, "VERO cells": {"test_system": "VERO cells", "experiment": "Toxicity assay in VERO cells (gentian violet staining)", "assay_type": "cell-based, African green monkey", "details": "IC50 in VERO cells / IC50 in trypomastigotes (Y strain)", "protocol": "VERO cells (African green monkey Kidney, ATCC CCL-81) were cultured in MEM medium supplemented with 10% heat inactivated FCS, 0.15% (w/v) NaHCO3, 100 U/mL penicillin and 100 U/mL streptomycin at 37°C in 5% CO2.\nThe toxicity of the compounds was determined in VERO cells by the gentian violet staining assay. Briefly, the cells (1 x10^4 cells/well) were incubated in 96-well plates with the indicated compound or dimethyl sulfoxide (DMSO) as negative control and maintained at 37° C for 24 h. Then the cells were fixed for 15 min, and stained with 0.5% gentian violet. The absorbance was measured at 570 nm. The selectivity index (SI) was calculated for each CV analogue as the ratio between the IC50 obtained in mammalian cells and the IC50 in trypomastigotes. For the combined treatment, the results were presented as percentage of untreated cells."}}, "data": [{"compound": "Nc1ccc(S(=O)(=O)c2ccc(N)cc2)cc1", "note": "[Dapsone]", "values": [{"measurement": "proline transport inhibition at 25 μM and 100 μM", "setting": "[1]", "value": "did not inhibit the proline transport in any concentration assayed"}]}, {"compound": "CN(C)c1ccc(C(=C2C=CC(=[N+](C)C)C=C2)c2ccc(N(C)C)cc2)cc1", "note": "[Crystal Violet]", "values": [{"measurement": "fold lower IC50 in CL Brener than in Y epimastigotes", "setting": "[2]", "value": 4.0, "unit": "fold"}, {"measurement": "effect on pH dependency of proline transport", "setting": "[1]; CV 10 μM, citrate buffer pH 5.0-6.5", "value": "did not alter the pH dependency"}, {"measurement": "proline transport inhibition in the absence of Na+ or K+ cations", "setting": "[1]; CV 10 μM, modified PBS vs regular PBS", "value": "No differences were observed"}, {"measurement": "mechanism of inhibition of proline transport", "setting": "[1]; TcWT, listed as CV", "value": "reversible competitive mechanism of inhibition"}, {"measurement": "fold increase of proline transport IC50 in Tc069 vs control parasites", "setting": "[3]", "value": 2.5, "unit": "fold"}, {"measurement": "fold reduction of trypanocidal IC50 in Tc069 vs wild type", "setting": "[4]", "value": 47, "unit": "fold"}, {"measurement": "fold lower IC50 in Dm28c than in Y epimastigotes", "setting": "[5]", "value": 31.8, "unit": "fold"}]}, {"compound": "Cc1cc2c(s1)Nc1ccccc1N=C2N1CCN(C)CC1", "note": "[Olanzapine]", "values": [{"measurement": "proline transport inhibition at 25 μM and 100 μM", "setting": "[1]", "value": "only inhibited proline transport at 100 μM"}, {"measurement": "concentration producing death of parasites in the lapse time of the transport assay", "setting": "[1]; epimastigotes", "value": "over 300 μM"}]}, {"compound": "CC(C)/N=c1\\cc2n(-c3ccc(Cl)cc3)c3ccccc3nc-2cc1Nc1ccc(Cl)cc1", "note": "[Clofazimine]", "values": [{"measurement": "Selectivity Index", "setting": "VERO cells", "value": 36.1}]}]}
